How the values were obtained:
Type in all cases: cell-based
[1] = system: H1703, H157, and H1155 cells; experiment: Apoptosis in cell lines with high levels of Akt activity; conditions: FIG. 4
Method: (§1) Cell lines containing high or low endogenous levels of Akt activity were treated with SH compounds and the cell apoptosis was measured.

p38 = experiment: Immunoblotting with phospho-specific antibodies: p38 phosphorylation; conditions: H1703 (FIG. 3A) or H157 cells (FIG. 3B)
Method: (§2) The SH compounds were tested against Akt and other kinases that are either upstream of Akt (PDK-1), downstream of Akt (c-Raf, 4EBP-1, p70S6K, FKHR, GSK-3, and/or AFX), or downstream of Ras (ERK, p38). Immunoblotting was carried out with phospho-specific antibodies to assess activation state of the kinases, and with native antibodies to assess changes in protein levels. Similar results were obtained with the H1703 (FIG. 3A) or H157 cells (FIG. 3B). […] Upstream of Akt, phosphorylation of PDK-1 was not affected by any SH compound. Of the downstream substrates, c-Raf phosphorylation and 4EBP-1 phosphorylation were decreased most. Decreased c-Raf phosphorylation correlated with increased ERK and p38 phosphorylation, which is consistent with the inhibitory effect of S259 phosphorylation by Akt on c-Raf activity.

H1355 and A549 cells = experiment: Apoptosis in cells with low endogenous Akt levels
Method: as §1

Akt = experiment: Immunoblotting with antibodies against Akt phosphorylated at S473 and native Akt after administration of compounds to cancer cell lines; conditions: for native Akt levels (immunoblot) / Akt phosphorylation at S473 (immunoblot): FIG. 1D; for decreasing Akt phosphorylation: panel of cancer cell lines (summary)
Method: The SH compounds were tested against Akt and other kinases that are either upstream of Akt (PDK-1), downstream of Akt (c-Raf, 4EBP-1, p70S6K, FKHR, GSK-3, and/or AFX), or downstream of Ras (ERK, p38). Immunoblotting was carried out with phospho-specific antibodies to assess activation state of the kinases, and with native antibodies to assess changes in protein levels.

MB468 cells = experiment: Apoptosis in MB468 cells; conditions: MB468 cells (data not shown)
Method: as §1

4EBP-1 = experiment: Immunoblotting with phospho-specific antibodies: 4EBP-1 phosphorylation; conditions: summary, cell line not specified
Method: as §2

tuberin = experiment: Phosphorylation of tuberin
Source text: SH5, 6, 23, 24, and 25 are very active in decreasing Akt phosphorylation in a panel of cancer cell lines. These compounds decrease Akt phosphorylation as well as Akt kinase activity, with IC50s in the low micromolar range. These compounds appear to be specific for Akt, as the phosphorylation of the upstream kinase, PDK-1, is unaffected by any of the SH compounds, as is […]. Cell-line specific, selective inhibition of phosphorylation of substrates downstream of Akt, such as c-Raf, 4EBP-1, GSK-3, and/or FKHR/AFX was observed. […] Phosphorylation of tuberin, 4EBP-1 and P70S6K (substrates that control protein translation) was inhibited by SH23, 24, and 25; and SH5-6 inhibited phosphorylation of tuberin and 4EBP-1. Phosphorylation of forkhead family members AFX and FKHR that control transcription was inhibited by SH23 or 25. Phosphorylation of GSK-3 and c-Raf was attenuated by SH23-25.

AFX = experiment: Immunoblotting with phospho-specific antibodies: AFX phosphorylation
Method: as §2

FKHR = experiment: Immunoblotting with phospho-specific antibodies: FKHR phosphorylation
Method: as §2

p70S6K = experiment: Immunoblotting with phospho-specific antibodies: p70S6K phosphorylation
Method: as §2

[2] = H1703 (FIG. 3A) or H157 cells (FIG. 3B)

In the case of CCCCCCCCCCCCCCCCCCOCC(COP(=O)(O)OC1C(O)CC(O)C(O)C1O)OC (centres unmarked) [DPIEL], the increase of apoptosis [1] is reported as “no effect” and the p38 phosphorylation (p38) is reported as “decreased”.
CCCCCCCCCCCCCCCCCCOC[C@H](COP(=O)(O)O[C@H]1[C@H](O)[C@@H](O)[C@H](O)C[C@H]1OC)OC [SH5] was tested, and the apoptosis (H1355 and A549 cells) was “did not undergo apoptosis”, the “native Akt levels (immunoblot)” value (Akt) was “without affecting” and the Akt phosphorylation (Akt; [2]) was “inhibited”. For the same compound, the “native Akt levels” value (Akt; [2]) was “without affecting”, the “Akt phosphorylation at S473 (immunoblot)” value (Akt; H1703 cells (wild type PTEN)) was “decreased” and the Akt phosphorylation (Akt; all three cell lines, FIG. 1F) was “completely inhibited”. The “decreasing Akt phosphorylation” value (Akt) was “very active”, the apoptosis (MB468 cells) was “Increased apoptosis” and the “phosphorylation of 4EBP-1” value (4EBP-1) was “inhibited”. The phosphorylation of tuberin (tuberin) was “inhibited”.
For CCCCCCCCCCCCCCCCCCOC[C@H](COP(=O)(O)O[C@@H]1CC[C@@H](O)[C@H](O)[C@H]1O)OC [SH6], the apoptosis (H1355 and A549 cells) was “did not undergo apoptosis”, the “native Akt levels (immunoblot)” value (Akt) was “without affecting” and the Akt phosphorylation (Akt; [2]) was “inhibited”. The “native Akt levels” value (Akt; [2]) was “without affecting”, the “Akt phosphorylation at S473 (immunoblot)” value (Akt; H1703 cells (wild type PTEN)) was “decreased” and the Akt phosphorylation (Akt; all three cell lines, FIG. 1F) was “completely inhibited”. For the same compound, the “decreasing Akt phosphorylation” value (Akt) was “very active”, the apoptosis (MB468 cells) was “Increased apoptosis” and the “phosphorylation of 4EBP-1” value (4EBP-1) was “inhibited”. For the same compound, the phosphorylation of tuberin (tuberin) was “inhibited”.
With CCCCCCCCCCCCCCCCCCOC[C@H](CO)OC [SH7, reference compound] the apoptosis (H1355 and A549 cells) was “did not undergo apoptosis”, the increase of apoptosis [1] was “no effect” and the “Akt phosphorylation at S473 (immunoblot)” value (Akt; cell line not specified (H1703, H157)) was “lack of decreased phosphorylation”. For the same compound, the Akt phosphorylation (Akt; [2]) was “did not decrease”.
For CCCCCCCCCCCCCCCCCCOC[C@H](COP(=O)(O)O[C@@H]1[C@H](O)[C@H](O)C[C@H](O)[C@H]1O)OC [SH10], the Akt phosphorylation (Akt; [2]) was “inhibited” and the “native Akt levels” value (Akt; [2]) was “without affecting”.
With CCCCCCCCCCCCCCCCCCOC[C@H](COP(=O)(O)O[C@H]1[C@H](O)C[C@H](O)C[C@H]1O)OC [SH16] the “native Akt levels (immunoblot)” value (Akt) was “without affecting”, the “Akt phosphorylation at S473 (immunoblot)” value (Akt; H157 cells (mutant PTEN)) was “All but SH16” and the “Akt phosphorylation at S473 (immunoblot)” value (Akt; H1703 cells (wild type PTEN)) was “decreased”.
For CCCCCCCCCCCCCCCCCCOCC(COP(=O)(O)OC1C(OCC(C)C)CC(O)C(O)C1O)OC (centres unmarked) [SH23], the “phosphorylation of AFX” value (AFX) was “inhibited”, the “phosphorylation of FKHR” value (FKHR) was “inhibited” and the “native Akt levels (immunoblot)” value (Akt) was “without affecting”. For the same compound, the “Akt phosphorylation at S473 (immunoblot)” value (Akt; H1703 cells (wild type PTEN)) was “decreased”, the Akt phosphorylation (Akt; all three cell lines, FIG. 1F) was “completely inhibited” and the “decreasing Akt phosphorylation” value (Akt) was “very active”. The “phosphorylation of P70S6K” value (p70S6K) was “inhibited”, the “phosphorylation of 4EBP-1” value (4EBP-1) was “inhibited” and the phosphorylation of tuberin (tuberin) was “inhibited”.
For CCCCCCCCCCCCCCCCCCOCC(COP(=O)(O)OC1C(OCC2CCCCC2)CC(O)C(O)C1O)OC (centres unmarked) [SH24], the “native Akt levels (immunoblot)” value (Akt) was “without affecting”, the “Akt phosphorylation at S473 (immunoblot)” value (Akt; H1703 cells (wild type PTEN)) was “decreased” and the Akt phosphorylation (Akt; all three cell lines, FIG. 1F) was “completely inhibited”. The “decreasing Akt phosphorylation” value (Akt) was “very active”, the “phosphorylation of P70S6K” value (p70S6K) was “inhibited” and the “phosphorylation of 4EBP-1” value (4EBP-1) was “inhibited”. The phosphorylation of tuberin (tuberin) was “inhibited”.
CCCCCCCCCCCCCCCCCCOCC(COP(=O)(O)OC1C(O)CCC(O)C1O)OC (centres unmarked) [SH25] was tested, and the “phosphorylation of AFX” value (AFX) was “inhibited”, the “phosphorylation of FKHR” value (FKHR) was “inhibited” and the “native Akt levels (immunoblot)” value (Akt) was “without affecting”. For the same compound, the “Akt phosphorylation at S473 (immunoblot)” value (Akt; H1703 cells (wild type PTEN)) was “decreased”, the Akt phosphorylation (Akt; all three cell lines, FIG. 1F) was “completely inhibited” and the “decreasing Akt phosphorylation” value (Akt) was “very active”. The “phosphorylation of P70S6K” value (p70S6K) was “inhibited”, the “phosphorylation of 4EBP-1” value (4EBP-1) was “inhibited” and the phosphorylation of tuberin (tuberin) was “inhibited”.

From patent US7378403B2, “Akt inhibitors, pharmaceutical compositions, and uses thereof” (The United States of America as represented by the …, priority 2002, dated 2008)
